Source: patent US9662327B2 (AGIOS PHARMACEUTICALS, INC, priority 2011, dated 2017)
pIC50: −log10 of the molar value.

Molecular target: IDH1 R132H (Homo sapiens (Human), UniProt O75874, R132H)
Test: Assays for IDH1 R132H Inhibitors (NADPH/aKG, resazurin detection)
Type: biochemical
Conditions: IDH1 R132H enzyme, Table 2; read-out: IDHR132H Activity
Experimental: Assays were conducted in a volume of […] assay buffer (150 mM NaCl, 10 mM MgCl2, 20 mM Tris pH 7.5, 0.03% bovine serum albumin) as follows in a standard 384-well plate: To 25 ul of substrate mix (8 uM NADPH, 2 mM aKG), 1 μl of test compound was added in DMSO. […] The reaction was incubated for 50 minutes at room temperature, then 25 μl of detection mix (30 μM resazurin, […]) was added and the mixture further incubated for 5 minutes at room temperature.

Chain of IDH1 R132H (O75874 whole entry R132H): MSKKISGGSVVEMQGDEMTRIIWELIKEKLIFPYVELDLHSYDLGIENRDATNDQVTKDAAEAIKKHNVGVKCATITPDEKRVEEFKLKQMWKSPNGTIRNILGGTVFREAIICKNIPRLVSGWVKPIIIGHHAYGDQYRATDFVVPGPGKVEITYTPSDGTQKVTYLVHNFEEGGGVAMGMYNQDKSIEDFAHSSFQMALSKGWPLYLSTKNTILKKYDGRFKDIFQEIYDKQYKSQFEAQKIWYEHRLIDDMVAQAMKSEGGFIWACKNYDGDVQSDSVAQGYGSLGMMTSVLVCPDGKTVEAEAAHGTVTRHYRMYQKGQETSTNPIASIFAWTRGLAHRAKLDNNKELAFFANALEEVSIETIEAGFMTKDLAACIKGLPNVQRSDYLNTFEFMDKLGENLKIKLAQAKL

pIC50	Compound
5.00 to 6.00	CC(C)c1nc(N2CCN(S(=O)(=O)c3cccs3)CC2)c(C#N)c2c1COCC2 [Compound 101]
5.00 to 6.00	CC(C)c1nc(N2CCN(C(=O)Nc3ccc(F)cc3)CC2)c(C#N)c2c1COCC2 [Compound 102, 4-(5-cyano-8-isopropyl-3,4-dihydro-1H-pyrano[3,4-c]pyridin-6-yl)-N-(4-fluorophenyl)piperazine-1-carboxamide]
5.00 to 6.00	COc1ccc(OC(=O)N2CCN(c3nc(C(C)C)c4c(c3C#N)CCOC4)CC2)cc1 [Compound 103, 4-methoxyphenyl 4-(5-cyano-8-isopropyl-3,4-dihydro-1H-pyrano[3,4-c]pyridin-6-yl)piperazine-1-carboxylate]
5.00 to 6.00	CC(C)c1nc(N2CCN(C(=O)c3c[nH]c4ccccc34)CC2)c(C#N)c2c1COCC2 [Compound 104, 6-(4-(1H-indole-3-carbonyl)piperazin-1-yl)-8-isopropyl-3,4-dihydro-1H-pyrano[3,4-c]pyridine-5-carbonitrile]
5.00 to 6.00	CC(C)c1nc(N2CCN(C(=O)c3ccc(Cl)c(Cl)c3)CC2)c(C#N)c2c1COCC2 [Compound 105, 6-(4-(3,4-dichlorobenzoyl)piperazin-1-yl)-8-isopropyl-3,4-dihydro-1H-pyrano[3,4-c]pyridine-5-carbonitrile]
5.00 to 6.00	CC(C)c1nc(N2CCN(C(=O)c3ccc(Cl)cc3Cl)CC2)c(C#N)c2c1COCC2 [Compound 106, 6-(4-(2,4-dichlorobenzoyl)piperazin-1-yl)-8-isopropyl-3,4-dihydro-1H-pyrano[3,4-c]pyridine-5-carbonitrile]
5.00 to 6.00	CC(C)c1nc(N2CCN(C(=O)NC3CCCCC3)CC2)c(C#N)c2c1COCC2 [Compound 107, 4-(5-cyano-8-isopropyl-3,4-dihydro-1H-pyrano[3,4-c]pyridin-6-yl)-N-cyclohexylpiperazine-1-carboxamide]
5.00 to 6.00	Cc1occc1C(=O)N1CCN(c2nc(C(C)C)c3c(c2C#N)CCOC3)CC1 [Compound 113, 8-isopropyl-6-(4-(2-methylfuran-3-carbonyl)piperazin-1-yl)-3,4-dihydro-1H-pyrano[3,4-c]pyridine-5-carbonitrile]
5.00 to 6.00	CC(C)c1nc(N2CCN(C(=O)c3ccco3)CC2)c(C#N)c2c1CC(C)(C)CC2 [Compound 116, 3-(4-(furan-2-carbonyl)piperazin-1-yl)-1-isopropyl-7,7-dimethyl-5,6,7,8-tetrahydroisoquinoline-4-carbonitrile]
5.00 to 6.00	N#Cc1c(N2CCN(C(=O)c3ccco3)CC2)nc(C2CCCC2)c2c1CCOC2 [Compound 124, 8-cyclopentyl-6-(4-(furan-2-carbonyl)piperazin-1-yl)-3,4-dihydro-1H-pyrano[3,4-c]pyridine-5-carbonitrile]

The remaining lines, values behind:

Compound	pIC50
CC(C)c1nc(N2CC(C)N(C(=O)NC3CCCCC3)C(C)C2)c(C#N)c2c1COCC2 (centres unmarked) [Compound 108, 4-(5-cyano-8-isopropyl-3,4-dihydro-1H-pyrano[3,4-c]pyridin-6-yl)-N-cyclohexyl-2,6-dimethylpiperazine-1-carboxamide]	5.00 to 6.00
CC(C)c1nc(N2C[C@@H](C)N(C(=O)NC3CCCCC3)[C@@H](C)C2)c(C#N)c2c1CCCC2 [Compound 109, (2S,6R)-4-(4-cyano-1-isopropyl-5,6,7,8-tetrahydroisoquinolin-3-yl)-N-cyclohexyl-2,6-dimethylpiperazine-1-carboxamide]	5.00 to 6.00
N#Cc1c(N2CCN(C(=O)c3ccco3)CC2)nc(C2CCCCC2)c2c1CCOC2 [Compound 110, 8-cyclohexyl-6-(4-(furan-2-carbonyl)piperazin-1-yl)-3,4-dihydro-1H-pyrano[3,4-c]pyridine-5-carbonitrile]	5.00 to 6.00
CC(C)c1nc(N2CCN(C(=O)c3ccco3)CC2c2ccccc2)c(C#N)c2c1COCC2 (centres unmarked) [Compound 111, 6-(4-(furan-2-carbonyl)-2-phenylpiperazin-1-yl)-8-isopropyl-3,4-dihydro-1H-pyrano[3,4-c]pyridine-5-carbonitrile]	5.00 to 6.00
Cc1ccc(-c2nc(N3CC(C)N(C(=O)c4ccco4)C(C)C3)c(C#N)c3c2COCC3)cc1 (centres unmarked) [Compound 112]	5.00 to 6.00
CC(C)c1nc(N2CC(C)N(C(=O)c3ccco3)CC2C)c(C#N)c2c1COCC2 (centres unmarked) [Compound 114, 6-(4-(furan-2-carbonyl)-2,5-dimethylpiperazin-1-yl)-8-isopropyl-3,4-dihydro-1H-pyrano[3,4-c]pyridine-5-carbonitrile]	5.00 to 6.00
CC(C)c1nc(N2CCN(C(=O)NC3CCCCC3)CC2)c(C#N)c2c1CCCC2 [Compound 115, 4-(4-cyano-1-isopropyl-5,6,7,8-tetrahydroisoquinolin-3-yl)-N-cyclohexylpiperazine-1-carboxamide]	5.00 to 6.00
CC1(C)Cc2c(C#N)c(N3CCN(C(=O)c4ccco4)CC3)nc(C3CCCCC3)c2CO1 [Compound 117, 8-cyclohexyl-6-(4-(furan-2-carbonyl)piperazin-1-yl)-3,3-dimethyl-3,4-dihydro-1H-pyrano[3,4-c]pyridine-5-carbonitrile]	5.00 to 6.00
N#Cc1c(N2CCN(C(=O)c3c[nH]c4ccccc34)CC2)nc(C2CCCCC2)c2c1CCOC2 [Compound 118, 6-(4-(1H-indole-3-carbonyl)piperazin-1-yl)-8-cyclohexyl-3,4-dihydro-1H-pyrano[3,4-c]pyridine-5-carbonitrile]	5.00 to 6.00
N#Cc1c(N2CCN(C(=O)c3cccc4[nH]ccc34)CC2)nc(C2CCCCC2)c2c1CCOC2 [Compound 119, 6-(4-(1H-indole-4-carbonyl)piperazin-1-yl)-8-cyclohexyl-3,4-dihydro-1H-pyrano[3,4-c]pyridine-5-carbonitrile]	5.00 to 6.00
N#Cc1c(N2CCN(C(=O)c3ccoc3)CC2)nc(C2CCCCC2)c2c1CCOC2 [Compound 120, 8-cyclohexyl-6-(4-(furan-3-carbonyl)piperazin-1-yl)-3,4-dihydro-1H-pyrano[3,4-c]pyridine-5-carbonitrile]	5.00 to 6.00
Cc1cc(C(=O)N2CCN(c3nc(C4CCCCC4)c4c(c3C#N)CCOC4)CC2)c(C)o1 [Compound 121, 8-cyclohexyl-6-(4-(2,5-dimethylfuran-3-carbonyl)piperazin-1-yl)-3,4-dihydro-1H-pyrano[3,4-c]pyridine-5-carbonitrile]	5.00 to 6.00
N#Cc1c(N2CCN(C(=O)c3ccc4[nH]ccc4c3)CC2)nc(C2CCCCC2)c2c1CCOC2 [Compound 122, 6-(4-(1H-indole-5-carbonyl)piperazin-1-yl)-8-cyclohexyl-3,4-dihydro-1H-pyrano[3,4-c]pyridine-5-carbonitrile]	5.00 to 6.00
N#Cc1c(N2CCN(C(=O)c3ccc4cc[nH]c4c3)CC2)nc(C2CCCCC2)c2c1CCOC2 [Compound 123, 6-(4-(1H-indole-6-carbonyl)piperazin-1-yl)-8-cyclohexyl-3,4-dihydro-1H-pyrano[3,4-c]pyridine-5-carbonitrile]	5.00 to 6.00
CC(C)c1nc(N2CCN(C(=O)c3ccco3)C(C)C2)c(C#N)c2c1CCCC2 (centres unmarked) [Compound 125, 3-(4-(furan-2-carbonyl)-3-methylpiperazin-1-yl)-1-isopropyl-5,6,7,8-tetrahydroisoquinoline-4-carbonitrile]	5.00 to 6.00
C[C@@H]1CN(c2nc(C3CCCC3)c3c(c2C#N)CCOC3)C[C@H](C)N1C(=O)c1ccco1 [Compound 126, 8-cyclopentyl-6-((3S,5R)-4-(furan-2-carbonyl)-3,5-dimethylpiperazin-1-yl)-3,4-dihydro-1H-pyrano[3,4-c]pyridine-5-carbonitrile]	5.00 to 6.00
